Measurements as given in patent publication US11224588B2, “Combination of lipoic acid and taurine as osmoprotective agent” (OPHTALMIS MONACO, priority 2015, dated 2022).

What was measured:
corneal cells = test: Antioxidant effect on corneal cells; assay type: cell-based
[1] = tested on: human corneal (HCE) cells; test: Cell viability (XTT assay) after hyperosmolar stress, HCE cells; assay type: cell-based; settings: at 0.005% and 0.001% (w/v), 4 h and 8 h post-stress; FIG. 1
Method: A study was carried out to determine the osmoprotective capacity of sodium lipoate (A) during hyperosmolar stress on human conjunctival (WKD) and corneal (HCE) cells. In a second phase, tests were carried out to compare the effect of lipoic acid, glycerin (B), and taurine (C), individually and when the molecules were combined, on HCE cells under hyperosmolar stress conditions. The osmoprotective activity of A, then A with B and C, was evaluated by measuring cell viability in particular. To that end, cells were preincubated for 17 h with the test substance(s). Next, the medium was removed and the cells were subjected to hyperosmolar stress by addition of sodium chloride (100 mM NaCl) to the culture medium (M199 for the WKD cells and KSFM for the HCE cells). Cell-growth control cells were contacted with isotonic medium. Cell viability was analyzed pre-osmotic stress (0 h) in order to measure the effect of the molecules remaining in contact with the cells during the 17 h of incubation, then at 4 h, 8 h and 24 h post-induction of osmotic stress. The cell viability measurement was carried out via an XTT assay. Various concentrations of A were tested for the “molecule alone” tests: 0.0005%, 0.001%, 0.005%, 0.01% and 0.05% w/v. […] To ensure the validity and the significance of the data, the results obtained were analyzed statistically. […]

O=C(O)CCCCC1CCSS1 (centres unmarked) [Sodium Lipoate, 5-(1,2-dithiolan-3-yl)pentanoic acid]
Antioxidant effect (corneal cells): rather weak
Osmoprotective activity against osmotic stress [1]: high osmoprotective activity
